Measurements: patent publication US20250263395A1, “COMPOUNDS THAT MEDIATE PROTEIN DEGRADATION AND METHODS OF USE THEREOF” (Monte Rosa Therapeutics AG, priority 2022, published 2025)

Experiments:
[1] = molecular target: CDK2 (Homo sapiens (Human), UniProt P24941); assay: CDK2 NanoBiT assay (HiBiT-tagged CDK2 degradation); type: cell-based; details: C-terminal HiBiT tag on CDK2, LgBiT, 24 hours
Procedure: Example 145. NanoBiT Assay
A HEK293 clonal line with a CRISPR knock-in C-terminal HiBiT tag on CDK2 and stably expressing LgBiT protein was obtained from Promega (Madison, WI). Cells were plated at 5000 cells per well using Multiflo (BioTek) in 384-well white solid bottom plates (Corning, 3570BC) in 25 ul volume in DMEM media (DMEM, high glucose, HEPES, no phenol red (ThermoFisher Scientific, 21063029)) containing 10% FBS (Corning, 35-075-CV), 1% Peniciliin/Streptomycin ((ThermoFisher Scientific, 15140-122), and 1% Endurazine (Nano-Glo Endurazine Live Cell Substrate (Promega, N2571)). Cells were incubated for 16 hours at 37 C, 5% CO2. 75 nL of a compound at 30 μM were dosed into the plate using an Echo® 650 liquid handler (Labcyte). Cells were incubated at 37° C., 5% CO2 for 24 hours and then signal was read on a Pherastar FSX using “LUM plus” optic module.
Analysis was performed in Scinamic (Scinamic, Cambridge, MA). Luminescence response (R) was calculated by the formula: response=100*(S−N)/(P−N) where S is the signal of the well, N and P the mean negative and positive control values respectively of the same plate. The luminescence response was then fitted in Scinamic using a 3-parameter agonist logistic fit (hillslope=1, EC50>0, top/bottom unconstrained).

[2] = molecular target: CRBN-DDB1 (Homo sapiens (Human), UniProt Q96SW2); assay: CRBN HTRF assay (Cy5-Thalidomide probe displacement); type: binding; details: CRBN-DDB1 2.5 nM, Cy5-Thalidomide 100 nM, 30 min; Ki from geometric mean IC50 by Cheng-Prusoff
Chain of CRBN-DDB1 (Q96SW2 whole entry): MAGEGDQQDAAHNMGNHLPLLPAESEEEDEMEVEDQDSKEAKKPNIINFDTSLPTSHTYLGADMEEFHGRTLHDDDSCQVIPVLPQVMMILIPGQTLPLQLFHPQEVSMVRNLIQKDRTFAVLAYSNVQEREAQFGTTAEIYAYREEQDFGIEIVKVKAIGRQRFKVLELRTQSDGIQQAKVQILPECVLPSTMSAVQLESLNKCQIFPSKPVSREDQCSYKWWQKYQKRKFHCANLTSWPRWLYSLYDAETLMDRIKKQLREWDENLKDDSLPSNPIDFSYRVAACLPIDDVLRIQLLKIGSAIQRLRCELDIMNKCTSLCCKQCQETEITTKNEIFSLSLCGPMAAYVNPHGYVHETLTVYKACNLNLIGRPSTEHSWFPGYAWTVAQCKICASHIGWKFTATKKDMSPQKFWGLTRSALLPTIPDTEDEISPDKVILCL
Chain of CRBN-DDB1 (Q16531 whole entry partner): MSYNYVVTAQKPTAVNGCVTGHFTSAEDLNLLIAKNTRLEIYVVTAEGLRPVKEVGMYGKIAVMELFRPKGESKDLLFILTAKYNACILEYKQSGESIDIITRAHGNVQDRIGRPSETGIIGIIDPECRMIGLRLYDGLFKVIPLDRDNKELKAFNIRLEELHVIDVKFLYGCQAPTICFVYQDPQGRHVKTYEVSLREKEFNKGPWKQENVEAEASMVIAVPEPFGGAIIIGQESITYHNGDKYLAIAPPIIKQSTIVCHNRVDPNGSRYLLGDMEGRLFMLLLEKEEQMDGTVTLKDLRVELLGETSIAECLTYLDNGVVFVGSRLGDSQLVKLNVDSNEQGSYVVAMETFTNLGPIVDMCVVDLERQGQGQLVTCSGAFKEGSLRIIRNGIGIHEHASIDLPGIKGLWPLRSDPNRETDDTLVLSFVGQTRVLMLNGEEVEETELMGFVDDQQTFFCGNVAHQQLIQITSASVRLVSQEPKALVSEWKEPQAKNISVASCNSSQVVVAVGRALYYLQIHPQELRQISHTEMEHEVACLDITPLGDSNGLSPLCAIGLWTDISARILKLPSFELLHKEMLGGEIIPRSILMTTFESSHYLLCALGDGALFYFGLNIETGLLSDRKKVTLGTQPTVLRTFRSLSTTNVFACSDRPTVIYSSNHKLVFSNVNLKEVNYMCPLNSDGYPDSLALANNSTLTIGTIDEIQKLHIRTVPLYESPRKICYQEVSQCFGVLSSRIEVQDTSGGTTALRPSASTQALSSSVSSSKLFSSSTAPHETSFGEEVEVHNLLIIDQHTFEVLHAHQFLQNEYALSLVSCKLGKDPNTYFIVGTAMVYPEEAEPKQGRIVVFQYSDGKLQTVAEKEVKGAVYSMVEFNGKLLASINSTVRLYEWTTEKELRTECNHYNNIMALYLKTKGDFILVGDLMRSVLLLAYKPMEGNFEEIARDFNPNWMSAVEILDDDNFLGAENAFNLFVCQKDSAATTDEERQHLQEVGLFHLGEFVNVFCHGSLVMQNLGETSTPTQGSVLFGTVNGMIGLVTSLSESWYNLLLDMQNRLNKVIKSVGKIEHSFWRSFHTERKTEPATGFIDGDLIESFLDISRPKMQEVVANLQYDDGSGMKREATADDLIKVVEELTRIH
Procedure: Compound activity was monitored in a Homogenous Time-Resolved Fluorescence (HTRF) assay using 1-[5-({2-[2-(2-{[2-(2,6-dioxopiperidin-3-yl)-1,3-dioxo-2,3-dihydro-1H-isoindol-4-yl]oxy}acetamido)ethoxy]ethyl}carbamoyl)pentyl]-3,3-dimethyl-2-[(1E,3E)-5-[(2E)-1,3,3-trimethyl-5-sulfo-2,3-dihydro-1H-indol-2-ylidene]penta-1,3-dien-1-yl]-3H-indol-1-ium-5-sulfonate as a fluorescent probe. Biochemical assays were conducted in Greiner white 384 well HiBase plates (Cat. No 784075-25) in 10 μL total volume. A one pot detection solution of CRBN-DDB1 (2.5 nM), Anti-His Terbium Cryptate Gold (1×, PerkinElmer Cat. #: 61HI2TLB), and Cy5-Thalidomide (100 nM, Tenova Cat.: T52461) was prepared in 20 mM HEPES, 20 mM NaCl, 0.2 mM TCEP, 0.2 mM EDTA, and 0.005% Tween20 was dispensed to each assay plate. Compounds were stored in dry, ambient temperatures at 10 mM. A 10-point, 1:3 dilution series was prepared from 10 mM stock concentrations in Echo-compatible LDV plates. 10 nL of each compound dilution series was dispensed into assays wells using an Echo 650 (Labcyte inc. USA). 10 nL of 10 mM Lenalidomide was transferred into the active-control wells for the assay and 10 nL of DMSO was transferred into the neutral-control wells. The assay was then allowed to incubate for 30 min at ambient temperature after transferring compound. Plate measurements were taken on a Pherastar FSX (BMG Labtech, Germany) using the HTRF Red filter (Ex. 337 nm, em1: 620 nm, em2: 665 nm) (Flashes: 50, Integration time: 60-400 us, Z-height: 10 mm, Ratio-multiplier: 10,000). The HTRF signal was then subsequently normalized to the neutral and active controls. Analysis and IC50 values were derived using KNIME analytics (KNIME Zurich) transformation and fitting within Collaborative Drug Discovery (Collaborative Drug Discovery USA). Ki was derived from the geometric mean of the IC50 values using the Cheng-Prustoff transformation.

Dmax ([1]; HEK293, HEK293 clonal line) [%] | Ki [2] [µM] | SMILES | Dmax ([1]; HEK293 clonal line) [%]
10 to 50 | ≤ 0.1 | Cc1c(Cl)cccc1N(C)C(=O)C12CC(OC(=O)NC3CN(c4cc(F)c(C5CCC(=O)NC5=O)c(F)c4)C3)(C1)C2 (stereo not drawn) [Compound 115, 3-((3-chloro-2-methylphenyl)(methyl)carbamoyl)bicyclo[1.1.1]pentan-1-yl (1-(4-(2,6-dioxopiperidin-3-yl)-3,5-difluorophenyl)azetidin-3-yl)carbamate] | 
10 to 50 | ≤ 0.1 | CN(C(=O)N1CC[C@H](OC(=O)NC2CN(c3cc(F)c(C4CCC(=O)NC4=O)c(F)c3)C2)C1)C1CC1 (stereo partly drawn) [Compound 16, (S)-1-(cyclopropyl(methyl)carbamoyl)pyrrolidin-3-yl (1-(4-(2,6-dioxopiperidin-3-yl)-3,5-difluorophenyl)azetidin-3-yl)carbamate] | 
50 to 80 | ≤ 0.1 | CN(C(=O)C12CC(OC(=O)NC3CN(c4cc(F)c(C5CCC(=O)NC5=O)c(F)c4)C3)(C1)C2)c1ccc(OC(F)(F)F)cc1 (stereo not drawn) [Compound 125, 3-(methyl(4-(trifluoromethoxy)phenyl)carbamoyl)bicyclo[1.1.1]pentan-1-yl (1-(4-(2,6-dioxopiperidin-3-yl)-3,5-difluorophenyl)azetidin-3-yl)carbamate] | 
10 to 50 | ≤ 0.1 | Cn1ccnc1N1CC(OC(=O)NC2CN(c3cc(F)c(C4CCC(=O)NC4=O)c(F)c3)C2)C1 (stereo not drawn) [Compound 77, 1-(1-methyl-1H-imidazol-2-yl)azetidin-3-yl (1-(4-(2,6-dioxopiperidin-3-yl)-3,5-difluorophenyl)azetidin-3-yl)carbamate] | 
> 80 | ≤ 0.1 | O=C1CCC(c2c(F)cc(N3CC(NC(=O)OCC4CCCCC4)C3)cc2F)C(=O)N1 (stereo not drawn) [Compound 51, cyclohexylmethyl (1-(4-(2,6-dioxopiperidin-3-yl)-3,5-difluorophenyl)azetidin-3-yl)carbamate] | 
50 to 80 | ≤ 0.1 | O=C1CCC(c2c(F)cc(N3CC(NC(=O)OC4CN(c5nc6ccccc6o5)C4)C3)cc2F)C(=O)N1 (stereo not drawn) [Compound 69, 1-(benzo[d]oxazol-2-yl)azetidin-3-yl (1-(4-(2,6-dioxopiperidin-3-yl)-3,5-difluorophenyl)azetidin-3-yl)carbamate] | 
10 to 50 | ≤ 0.1 | Cc1cc(Cl)ccc1N(C)C(=O)N1CC(OC(=O)NC2CN(c3cc(F)c(C4CCC(=O)NC4=O)c(F)c3)C2)C1 (stereo not drawn) [Compound 113, 1-((4-chloro-2-methylphenyl)(methyl)carbamoyl)azetidin-3-yl (1-(4-(2,6-dioxopiperidin-3-yl)-3,5-difluorophenyl)azetidin-3-yl)carbamate] | 
50 to 80 | ≤ 0.1 | CN(C(=O)C12CC(OC(=O)NC3CN(c4cc(F)c(C5CCC(=O)NC5=O)c(F)c4)C3)(C1)C2)c1ccc(Cl)cc1 (stereo not drawn) [Compound 129, 3-((4-chlorophenyl)(methyl)carbamoyl)bicyclo[1.1.1]pentan-1-yl (1-(4-(2,6-dioxopiperidin-3-yl)-3,5-difluorophenyl)azetidin-3-yl)carbamate] | 
> 80 | 0.1 to 1 | Cc1cccc(-c2nnc(NC3CN(c4cc(F)c(C5CCC(=O)NC5=O)c(F)c4)C3)o2)c1 (stereo not drawn) [Compound 97, 3-(2,6-difluoro-4-(3-((5-(m-tolyl)-1,3,4-oxadiazol-2-yl)amino)azetidin-1-yl)phenyl)piperidine-2,6-dione] | 
50 to 80 | ≤ 0.1 | O=C1CCC(c2c(F)cc(N3CC(NC(=O)OC4CN(C(=O)c5ccc(Cl)cc5)C4)C3)cc2F)C(=O)N1 (stereo not drawn) [Compound 26, 1-(4-chlorobenzoyl)azetidin-3-yl (1-(4-(2,6-dioxopiperidin-3-yl)-3,5-difluorophenyl)azetidin-3-yl)carbamate] | 
> 80 | ≤ 0.1 | Cc1ccccc1-c1nnc(NC2CN(c3cc(F)c(C4CCC(=O)NC4=O)c(F)c3)C2)o1 (stereo not drawn) [Compound 96, 3-(2,6-difluoro-4-(3-((5-(o-tolyl)-1,3,4-oxadiazol-2-yl)amino)azetidin-1-yl)phenyl)piperidine-2,6-dione] | 
10 to 50 | ≤ 0.1 | CN(C)C(=O)N1CC(OC(=O)NC2(C)CN(c3cc(F)c(C4CCC(=O)NC4=O)c(F)c3)C2)C1 (stereo not drawn) [Compound 14, 1-(dimethylcarbamoyl)azetidin-3-yl (1-(4-(2,6-dioxopiperidin-3-yl)-3,5-difluorophenyl)-3-methylazetidin-3-yl)carbamate] | 
50 to 80 | ≤ 0.1 | Cc1ccccc1N(C)C(=O)N1CC(OC(=O)NC2CN(c3cc(F)c(C4CCC(=O)NC4=O)c(F)c3)C2)C1 (stereo not drawn) [Compound 70, 1-(methyl(o-tolyl)carbamoyl)azetidin-3-yl (1-(4-(2,6-dioxopiperidin-3-yl)-3,5-difluorophenyl)azetidin-3-yl)carbamate] | 
10 to 50 | 0.1 to 1 | Cc1cc(N2CC(NC(=O)OC3CN(C(=O)N(C)C4CC4)C3)C2)cc(C)c1C1CCC(=O)NC1=O (stereo not drawn) [Compound 86, 1-(cyclopropyl(methyl)carbamoyl)azetidin-3-yl (1-(4-(2,6-dioxopiperidin-3-yl)-3,5-dimethylphenyl)azetidin-3-yl)carbamate] | 
50 to 80 | ≤ 0.1 | O=C1CCC(c2c(F)cc(N3CC(NC(=O)OC4CN(C(=O)N5Cc6ccccc6C5)C4)C3)cc2F)C(=O)N1 (stereo not drawn) [Compound 5, 1-(isoindoline-2-carbonyl)azetidin-3-yl (1-(4-(2,6-dioxopiperidin-3-yl)-3,5-difluorophenyl)azetidin-3-yl)carbamate] | 
50 to 80 | ≤ 0.1 | O=C1CCC(c2c(F)cc(N3CC(NC(=O)OC4CN(C(=O)N5CCCCC5)C4)C3)cc2F)C(=O)N1 (stereo not drawn) [Compound 36, 1-(piperidine-1-carbonyl)azetidin-3-yl (1-(4-(2,6-dioxopiperidin-3-yl)-3,5-difluorophenyl)azetidin-3-yl)carbamate] | 
> 80 | ≤ 0.1 | O=C1CCC(c2c(F)cc(N3CC(NC(=O)OC[C@@H]4C[C@H]5CC[C@@H]4C5)C3)cc2F)C(=O)N1 (stereo partly drawn) [Compound 3, (1R,2R,4S)-bicyclo[2.2.1]heptan-2-ylmethyl (1-(4-(2,6-dioxopiperidin-3-yl)-3,5-difluorophenyl)azetidin-3-yl)carbamate] | 
50 to 80 | ≤ 0.1 | Cc1ccc(C(=O)N2CC(OC(=O)NC3CN(c4cc(F)c(C5CCC(=O)NC5=O)c(F)c4)C3)C2)cc1 (stereo not drawn) [Compound 23, 1-(4-methylbenzoyl)azetidin-3-yl (1-(4-(2,6-dioxopiperidin-3-yl)-3,5-difluorophenyl)azetidin-3-yl)carbamate] | 
10 to 50 | ≤ 0.1 | Cc1ccc(N(C)C(=O)C23CC(OC(=O)NC4CN(c5cc(F)c(C6CCC(=O)NC6=O)c(F)c5)C4)(C2)C3)c(C)c1 (stereo not drawn) [Compound 117, 3-((2,4-dimethylphenyl)(methyl)carbamoyl)bicyclo[1.1.1]pentan-1-yl (1-(4-(2,6-dioxopiperidin-3-yl)-3,5-difluorophenyl)azetidin-3-yl)carbamate] | 
50 to 80 | ≤ 0.1 | CN(C(=O)N1CCC(OC(=O)NC2CN(c3cc(F)c(C4CCC(=O)NC4=O)c(F)c3)C2)CC1)C1CC1 (stereo not drawn) [Compound 88, 1-(cyclopropyl(methyl)carbamoyl)piperidin-4-yl (1-(4-(2,6-dioxopiperidin-3-yl)-3,5-difluorophenyl)azetidin-3-yl)carbamate] | 

SMILES | Dmax ([1]; HEK293, HEK293 clonal line) [%] | Ki [2] [µM] | Dmax ([1]; HEK293 clonal line) [%]
CC(C)(C)[Si](C)(C)O[C@H]1C[C@@H](OC(=O)NC2CN(c3cc(F)c(C4CCC(=O)NC4=O)c(F)c3)C2)C1 (stereo partly drawn) [Compound 48] |  | ≤ 0.1 | > 80
